According to patent US11845752B2, “Substituted imidazo[1,5-a]pyrazines for the treatment of hepatitis B” (ALIGOS THERAPEUTICS, INC., priority 2020, dated 2023):
pEC50: −log10 of the molar value.

tested on: HBV; assay: HBV-DNA antiviral assay using HepG2.117 cells (intracellular HBV DNA by qPCR); assay type: cell-based, HBV genotype D; conditions: Hepatitis B virus, HepG2.117, 72 h, HBV DNA inhibition, 3 days incubation, read-out: EC50
Description: The following assay procedure describes the HBV antiviral assay, using HepG2.117 cells, which carry a stably integrated genotype D HBV genome under the control of a Tet-off promoter, and intracellular HBV DNA quantification as endpoint. Cell viability is assessed in parallel by measuring the intracellular ATP content using ATPlite (Perkin Elmer).
On day 0, HepG2.117 cells (which are maintained in routine cell culture with doxycycline present in the medium at a final concentration of 1 μg/mL) were seeded in 96-well plates (white with clear bottom) at a density of 2.0×10^4 cells/well (0.1 mL/well) in medium without doxycycline to induce pgRNA transcription and subsequent formation of HBV particles. The cells were incubated at 37° C. and 5% CO2.
On day 1, medium was removed from each well, the test articles were diluted in culture medium without doxcycyline and 100 μL was added to cell culture wells (9 concentrations, 4-fold dilution). For each plate, 6 untreated (merely DMSO) wells were included. The final concentration of DMSO in the culture medium was 2%. Each plate was prepared in duplicate (one for HBV DNA extraction, one for ATPlite measurement). The cells were incubated at 37° C. and 5% CO2 for 3 days.
On day 4, cell viability was assessed using ATPlite and cell lysates were prepared for HBV DNA extraction and subsequent quantification by qPCR.
Medium was removed from each well and 100 μL of 0.33% NP-40 in H2O was added to each well. Plates were sealed, incubated at 4° C. for 5 mins, vortexed extensively and centrifuged briefly. Next, 35 μL of lysate was added to 65 μL QuickExtract DNA Extraction Solution (Epicentre) in a PCR plate for each well. PCR plate was incubated at 65° C. for 6 mins, 98° C. for 2 mins and finally cooled to 4° C. HBV DNA was then quantified by qPCR with HBV-specific primers and probes as specified in Table 1 using the Bio-Rad SSOAdvanced Universal Probes Supermix on a CFX96 machine (Bio-Rad). The PCR cycle program consisted of 95° C. for 3 mins, followed by 40 cycles at 95° C. for 10 sec and 60° C. for 30 sec.
A DNA standard was prepared by dilution of an IDT gBlock corresponding to the amplicon with concentrations ranging from 10^2 to 10^8 copies/input (i.e. per 4 μL) and used to generate a standard curve by plotting Cq values vs. HBV DNA standard concentration. The quantity of HBV DNA in each sample was determined by interpolating from the standard curve.
Cell viability was calculated as follows: % Cell viability=(luminescence value of test sample)/(average luminescence value of 2% DMSO control)×100%. HBV DNA inhibition was calculated as follows: 100−(HBV DNA copy number of test sample)/(average HBV DNA copy number of 2% DMSO control)×100%. No normalization to entecavir was required due to the excellent dynamic window of this assay. The CC50, EC50 and EC90 values were determined by dose-response curves fitted using non-linear regression.

SMILES	pEC50
CC1Cn2c(c(C(=O)NCc3ccccc3-c3ccncn3)n(-c3ccc(N4CCO[C@H](C(F)(F)F)C4)cc3)c2=O)CN1C(=O)c1ccc(Br)c(C(F)(F)F)c1 (mixture of isomers) [Compound 52a, rac-(6S)-7-[4-bromo-3-(trifluoromethyl)benzoyl]-6-methyl-3-oxo-N-[(2-pyrimidin-4-ylphenyl)methyl]-2-[4-[(2S)-2-(trifluoromethyl)morpholin-4-yl]phenyl]-6,8-dihydro-5H-imidazo[1,5-a]pyrazine-1-carboxamide]	6.30 to 7.30
CC1Cn2c(c(C(=O)NCc3ccccc3-c3ccncn3)n(-c3ccc(N4CCO[C@H](C(F)(F)F)C4)cc3)c2=O)CN1C(=O)c1ccc(Br)c(C(F)(F)F)c1 (mixture of isomers) [Compound 52b, rac-(6R)-7-[4-bromo-3-(trifluoromethyl)benzoyl]-6-methyl-3-oxo-N-[(2-pyrimidin-4-ylphenyl)methyl]-2-[4-[(2S)-2-(trifluoromethyl)morpholin-4-yl]phenyl]-6,8-dihydro-5H-imidazo[1,5-a]pyrazine-1-carboxamide]	> 7.30
C[C@H](O)COc1ccc(-n2c(C(=O)NCc3ccccc3-c3cccnn3)c3n(c2=O)C[C@H](C)N(C(=O)c2ccc(Br)c(C(F)(F)F)c2)C3)cc1 (mixture of isomers) [Compound 57b, (6SR)-7-[4-bromo-3-(trifluoromethyl)benzoyl]-2-[4-[(2S)-2-hydroxypropoxy]phenyl]-6-methyl-3-oxo-N-[(2-pyridazin-3-ylphenyl)methyl]-6,8-dihydro-5H-imidazo[1,5-a]pyrazine-1-carboxamide]	6.30 to 7.30
C[C@H](O)COc1ccc(-n2c(C(=O)NCc3ccccc3-c3ccncn3)c3n(c2=O)C[C@@H](C)N(C(=O)c2ccc(Br)c(C(F)(F)F)c2)C3)cc1 (mixture of isomers) [Compound 58a, (6RS)-7-[4-bromo-3-(trifluoromethyl)benzoyl]-2-[4-[(2S)-2-hydroxypropoxy]phenyl]-6-methyl-3-oxo-N-[(2-pyrimidin-4-ylphenyl)methyl]-6,8-dihydro-5H-imidazo[1,5-a]pyrazine-1-carboxamide]	6.30 to 7.30
C[C@H](O)COc1ccc(-n2c(C(=O)NCc3ccccc3-c3ccncn3)c3n(c2=O)C[C@H](C)N(C(=O)c2ccc(Br)c(C(F)(F)F)c2)C3)cc1 (mixture of isomers) [Compound 58b, (6SR)-7-[4-bromo-3-(trifluoromethyl)benzoyl]-2-[4-[(2S)-2-hydroxypropoxy]phenyl]-6-methyl-3-oxo-N-[(2-pyrimidin-4-ylphenyl)methyl]-6,8-dihydro-5H-imidazo[1,5-a]pyrazine-1-carboxamide]	> 7.30
C[C@@H](O)COc1ccc(-n2c(C(=O)NCc3ccccc3-c3ccccn3)c3n(c2=O)C[C@H](C)N(C(=O)c2ccc(Br)c(C(F)(F)F)c2)C3)cc1 (mixture of isomers) [Compound 60b, (6SR)-7-[4-bromo-3-(trifluoromethyl)benzoyl]-2-[4-[(2R)-2-hydroxypropoxy]phenyl]-6-methyl-3-oxo-N-[[2-(2-pyridyl)phenyl]methyl]-6,8-dihydro-5H-imidazo[1,5-a]pyrazine-1-carboxamide]	> 7.30
C[C@H](O)COc1ccc(-n2c(C(=O)NCc3ccccc3-c3ccccn3)c3n(c2=O)C[C@@H](C)N(C(=O)c2ccc(Br)c(C(F)(F)F)c2)C3)cc1 (mixture of isomers) [Compound 61a, (6RS)-7-[4-bromo-3-(trifluoromethyl)benzoyl]-2-[4-[(2S)-2-hydroxypropoxy]phenyl]-6-methyl-3-oxo-N-[[2-(2-pyridyl)phenyl]methyl]-6,8-dihydro-5H-imidazo[1,5-a]pyrazine-1-carboxamide]	> 7.30
C[C@H](O)COc1ccc(-n2c(C(=O)NCc3ccccc3-c3ccccn3)c3n(c2=O)C[C@H](C)N(C(=O)c2ccc(Br)c(C(F)(F)F)c2)C3)cc1 (mixture of isomers) [Compound 61b, (6SR)-7-[4-bromo-3-(trifluoromethyl)benzoyl]-2-[4-[(2S)-2-hydroxypropoxy]phenyl]-6-methyl-3-oxo-N-[[2-(2-pyridyl)phenyl]methyl]-6,8-dihydro-5H-imidazo[1,5-a]pyrazine-1-carboxamide]	> 7.30
C[C@@H](O)COc1ccc(-n2c(C(=O)NCc3ccccc3-c3ncccn3)c3n(c2=O)C[C@H](C)N(C(=O)c2ccc(Br)c(C(F)(F)F)c2)C3)cc1 (mixture of isomers) [Compound 64b, (6SR)-7-[4-bromo-3-(trifluoromethyl)benzoyl]-2-[4-[(2R)-2-hydroxypropoxy]phenyl]-6-methyl-3-oxo-N-[(2-pyrimidin-2-ylphenyl)methyl]-6,8-dihydro-5H-imidazo[1,5-a]pyrazine-1-carboxamide]	6.30 to 7.30
C[C@@H]1Cn2c(c(C(=O)NCc3ccccc3-c3cccnn3)n(-c3ccc(OC[C@@H](O)C(F)(F)F)cc3)c2=O)CN1C(=O)c1ccc(Br)c(C(F)(F)F)c1 (mixture of isomers) [Compound 66a, (6RS)-7-[4-bromo-3-(trifluoromethyl)benzoyl]-6-methyl-3-oxo-N-[(2-pyridazin-3-ylphenyl)methyl]-2-[4-[(2R)-3,3,3-trifluoro-2-hydroxy-propoxy]phenyl]-6,8-dihydro-5H-imidazo[1,5-a]pyrazine-1-carboxamide]	6.30 to 7.30
C[C@H]1Cn2c(c(C(=O)NCc3ccccc3-c3cccnn3)n(-c3ccc(OC[C@@H](O)C(F)(F)F)cc3)c2=O)CN1C(=O)c1ccc(Br)c(C(F)(F)F)c1 (mixture of isomers) [Compound 66b, (6SR)-7-[4-bromo-3-(trifluoromethyl)benzoyl]-6-methyl-3-oxo-N-[(2-pyridazin-3-ylphenyl)methyl]-2-[4-[(2R)-3,3,3-trifluoro-2-hydroxy-propoxy]phenyl]-6,8-dihydro-5H-imidazo[1,5-a]pyrazine-1-carboxamide]	6.30 to 7.30
C[C@@H]1Cn2c(c(C(=O)NCc3ccccc3-c3cccnn3)n(-c3ccc(OC[C@H](O)C(F)(F)F)cc3)c2=O)CN1C(=O)c1ccc(Br)c(C(F)(F)F)c1 (mixture of isomers) [Compound 67a, (6RS)-7-[4-bromo-3-(trifluoromethyl)benzoyl]-6-methyl-3-oxo-N-[(2-pyridazin-3-ylphenyl)methyl]-2-[4-[(2S)-3,3,3-trifluoro-2-hydroxy-propoxy]phenyl]-6,8-dihydro-5H-imidazo[1,5-a]pyrazine-1-carboxamide]	6.30 to 7.30
C[C@H]1Cn2c(c(C(=O)NCc3ccccc3-c3cccnn3)n(-c3ccc(OC[C@H](O)C(F)(F)F)cc3)c2=O)CN1C(=O)c1ccc(Br)c(C(F)(F)F)c1 (mixture of isomers) [Compound 67b, (6SR)-7-[4-bromo-3-(trifluoromethyl)benzoyl]-6-methyl-3-oxo-N-[(2-pyridazin-3-ylphenyl)methyl]-2-[4-[(2S)-3,3,3-trifluoro-2-hydroxy-propoxy]phenyl]-6,8-dihydro-5H-imidazo[1,5-a]pyrazine-1-carboxamide]	> 7.30
C[C@H]1Cn2c(c(C(=O)NCc3ccccc3-c3ccccn3)n(-c3ccc(OC[C@@H](O)C(F)(F)F)cc3)c2=O)CN1C(=O)c1ccc(Br)c(C(F)(F)F)c1 (mixture of isomers) [Compound 68b, (6SR)-7-[4-bromo-3-(trifluoromethyl)benzoyl]-6-methyl-3-oxo-N-[[2-(2-pyridyl)phenyl]methyl]-2-[4-[(2R)-3,3,3-trifluoro-2-hydroxy-propoxy]phenyl]-6,8-dihydro-5H-imidazo[1,5-a]pyrazine-1-carboxamide]	> 7.30
C[C@H]1Cn2c(c(C(=O)NCc3ccccc3-c3ccccn3)n(-c3ccc(OC[C@H](O)C(F)(F)F)cc3)c2=O)CN1C(=O)c1ccc(Br)c(C(F)(F)F)c1 (mixture of isomers) [Compound 69b, (6SR)-7-[4-bromo-3-(trifluoromethyl)benzoyl]-6-methyl-3-oxo-N-[[2-(2-pyridyl)phenyl]methyl]-2-[4-[(2S)-3,3,3-trifluoro-2-hydroxy-propoxy]phenyl]-6,8-dihydro-5H-imidazo[1,5-a]pyrazine-1-carboxamide]	6.30 to 7.30
